Data set [1] relates to CEM, HeL, CRFK, HeLa, MDCK cells. Particulars: above mentioned cell lines.
The test system of data set [2] is Parainfluenza 3-virus. The data set can be described thus: Antiviral screening, Parainfluenza 3-virus in MDCK cells. In kind it is cell-based. The conditions noted are these: read-out: EC50 Parainfluenza 3-virus.
Data set [3] concerns Reovirus-1. The data set can be described thus: Antiviral screening, Reovirus-1 in MDCK cells. In kind it is cell-based. The conditions noted are these: read-out: EC50 Reovirus-1.
Data set [4] has as its system Feline herpes virus. The data set can be described thus: Antiviral screening, Feline herpes virus in CRFK cells. In kind it is cell-based. The conditions noted are these: read-out: EC50 Feline herpes virus.
Data set [5] deals with FIV (feline immunodeficiency virus). The conditions noted are these: cited from earlier work.
Data set [6] has as its system VV. The data set can be described thus: Antiviral activity against VV. In kind it is cell-based.
Data set [7] relates to FIV. The data set can be described thus: Anti-FIV activity in CrFK cells. In kind it is cell-based, feline immunodeficiency virus.
The subject of data set [8] is HCMV. The data set can be described thus: Antiviral activity against HCMV. In kind it is cell-based.
Data set [9] has as its system HSV-2. The data set can be described thus: Antiviral activity against HSV-2. In kind it is cell-based.
Data set [10] relates to HSV-1. The data set can be described thus: Antiviral activity against HSV-1. Type of data set: cell-based.
The subject of data set [11] is Feline herpesvirus. The data set can be described thus: Antiviral activity against Feline herpesvirus. Type of data set: cell-based.

Here are results for 6 compounds from article PMC7127208 (Bioorganic & Medicinal Chemistry, 2013).

As a reminder, the EC50 is the concentration that produces a half-maximal response. As to `C[C@@H](O)CNc1nc(N)c2ncn(C[C@@H](C)O)c2n1` [compound 3, (R)-1-{6-Amino-2-[(R)-2-(hydroxypropyl)amino]-9H-purin-9-yl}propan-2-ol], in [1], the “MCC, minimum cytotoxicity concentration required to cause a microscopically detectable alteration of normal cell morphology” value (“MCC … of normal cell morphology” below) was over 100 μg/mL. The EC50 in [2], in data set [3] and in data set [4] was over 100 µg/mL in each case.

Turning to `C[C@@H](O)CNc1nc(N)nc2c1ncn2C[C@@H](C)O` [compound 4, (R)-1-{2-Amino-6-[((R)-2-hydroxypropyl)amino]-9H-purin-9-yl}propan-2-ol], in [1], the “MCC … of normal cell morphology” value is on record as over 100 μg/mL. The EC50 in data set [2], in [3] and in data set [4] was over 100 µg/mL in each case.

As for `C[C@H](Cn1cnc2c(NCP(=O)(O)O)nc(N)nc21)OCP(=O)(O)O` [compound 10, (R)-9-[2-(Phosphonomethoxy)propyl]-N^6-phosphonomethyl-2,6-diaminopurine], the “MCC … of normal cell morphology” value in data set [1] is over 100 μg/mL. Besides, the concentration for a half-maximal effect (EC50) in [2], in data set [3] and in data set [4] was over 100 µg/mL in each case.

For `C[C@H](Cn1cnc2c(N)nc(N)nc21)OCP(=O)(O)O` [compound 12, (R)-9-[2-(phosphonomethoxy)propyl]-2,6-diaminopurine], in [5], the “inhibition of FIV infections in cats” value is recorded as “very potent inhibitor”.

`CCCCCCCCCCCCCCCCOCCCOP(=O)([O-])CO[C@H](C)Cn1cnc2c(N)nc(N)nc21.[Na+]` [compound 14, Hexadecyloxypropyl ester of (R)-9-[2-(phosphonomethoxy)propyl]-2,6-diaminopurine, sodium salt]: the “activity against VV” value in data set [6] is on record as “No activity”. Also, the “fold more potent in inhibiting FIV replication compared to the parent molecule” value in data set [7] (in vitro, versus (R)-PMPDAP) stood at 200 fold. Besides, the “activity against HCMV” value in [8] is given as “No activity”. Moreover, in data set [9], the “activity against HSV-2” value is on record as “No activity”. Moreover, in data set [10], the “activity against HSV-1” value was “No activity”. In addition, in [11], the “activity against Feline herpesvirus” value was “No activity”.

`CCOC(=O)[C@H](C)NP(=O)(CO[C@H](C)Cn1cnc2c(N)nc(N)nc21)N[C@@H](C)C(=O)OCC` [compound 15]: the “fold less active against FIV compared to the parent molecule” value in [7] is recorded as 10 fold.
